These results are taken from patent publication US20180171411A1, “GFRalpha1 AS A BIOMARKER FOR CISPLATIN-INDUCED CHEMORESISTANCE AND METASTASIS” (THE BOARD OF REGENTS OF THE UNIVERSITY OF TEXAS SYSTEM, priority 2015, published 2018).

Structures are written as SMILES.

Assay [1] relates to APE1 expression in osteosarcoma cells. Description: Immunoblot of APE1 expression after cisplatin. The format is cell-based, human. The settings on record: different concentrations of cisplatin, 24 h. The method, then:
FIG. 10. GFRα1-mediated chemoresistance of osteosarcoma cells is independent of APE and RET signaling. (a) Immunoblot analysis of MG-63 cell lysates with antibodies specific for APE, RET and β-actin. MG-63 and U-2 OS cells were treated with different concentrations of cisplatin for 24 h. The cell lysates of GDNF-treated MIA PaCa-2 were used as positive controls for APE and RET expression.
Immunoblotting. Cells were washed with PBS and lysed in RIPA Buffer (Pierce, Rockford, Ill.). The protein content was determined using a dye-binding microassay (Bio-Rad, Hercules, Calif.), and 10-50 μg protein per lane was electrophoresed on 4-12% SDS polyacrylamide gels. Proteins were blotted onto Hybond ECL membranes (Amersham Pharmacia Biotech, Piscataway, N.J.). Two protein ladders were used for molecular weight determination (GenDEPOT, Barker, Tex.). The blotted proteins were detected using an enhanced chemiluminescence detection system (iNtRON, Seoul, Korea). Data were quantified and analyzed with Image-J software.
Background: Immunoblotting shows a protein as a band on a membrane.

The subject of assay [2] is GDNF mRNA in MG-63 and U-2 OS cells. Kind of assay: PCR of GDNF mRNA expression after cisplatin. The format is cell-based, human. Particulars: 10 and 20 μM of cisplatin, 24 h. The protocol: FIG. 7. GFRα1-mediated chemoresistance of osteosarcoma cells is independent of GDNF. (a) Quantitative real-time PCR of GDNF mRNA expression after cisplatin treatment. MG-63 and U-2 OS cells were treated with different concentrations of cisplatin for 24 h. (b-d) Cell viability was measured using the WST-1 assay. The values are represented as a mean±s.d.m. (n=3). (b) MG-63 cells were treated with PBS or GDNF (50 ng/ml) for 24 h. (c) Control and GFRα1-overexpressing cells were cultured and treated with PBS or GDNF for 24 h. (d) Control and GFRα1-overexpressing cells were treated and cultured with PBS only, Cisplatin, or Cisplatin+GDNF (50 ng/ml) for 24 h, respectively. […] Representative images of RFP-LC3 and GFP-LC3 puncta. Scale bar, 20 μm. Control and GFRα1-overexpressing MG-63 cells were transiently transfected with an RFP-GFP tandem fluorescent-tagged LC3 (RFP-GFP-LC3) and then treated with PBS (top two panels) or cisplatin (20 μM; bottom two panes) for 24 h. […] (f) Quantitative analysis of the number of yellow puncta and the number of RFP-LC3 puncta in the combined images of Control and GFRα1-overexpressing MG-63 cells treated with GDNF. […]
Semi-quantitative RT-PCR. […]

`N.N.[Cl][Pt][Cl]` [cisplatin, Cis-Diamineplatinum(II) dichloride]: the “level of APE1 expression” value in assay [1] is “not affected”. Also, in assay [2], the “GDNF mRNA expression” value is “increase”.
